# Experimental data taken from patent US4757084A, “2,5-diaryl tetrahydrothiophenes and analogs thereof as PAF-antagonists” (Merck & Co., Inc., priority 1985, dated 1988).
# Experiments:
# [1] = biological target: PAF specific receptor binding site on rabbit platelet plasma membranes (Oryctolagus cuniculus, UniProt G1TEI7); assay: Inhibition of 3H-PAF binding to rabbit platelet plasma membrane; settings: for inhibition at 0.03 µM: .03 μM; for inhibition at 0.1 µM: .1 μM; for inhibition at 0.3 µM: .3 μM
# Chain of PAF specific receptor binding site on rabbit platelet plasma membranes (G1TEI7 1-342): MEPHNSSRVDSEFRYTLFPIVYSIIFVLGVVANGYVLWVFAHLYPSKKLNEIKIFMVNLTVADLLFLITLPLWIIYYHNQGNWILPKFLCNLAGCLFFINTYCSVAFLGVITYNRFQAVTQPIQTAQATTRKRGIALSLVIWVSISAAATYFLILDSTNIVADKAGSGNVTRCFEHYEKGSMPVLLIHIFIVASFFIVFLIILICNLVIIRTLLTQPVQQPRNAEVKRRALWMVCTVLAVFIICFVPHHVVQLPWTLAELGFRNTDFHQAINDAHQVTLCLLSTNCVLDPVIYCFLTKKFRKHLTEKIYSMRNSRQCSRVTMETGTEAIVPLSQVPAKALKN
# Procedure: A. In Vitro Assay: In vitro, they inhibit PAF-induced functions in both the cellular and tissue levels by disturbing the PAF binding to its specific receptor site. The ability of a compound of formula (I) to inhibit the PAF binding to its specific receptor binding site on rabbit platelet plasma membranes was measured by an assay recently developed by us.
# The inhibition of H^3 -PAF binding to the rabbit platelet plasma membrane by a PAF-antagonist of Formula (I) was determined by a method employing isotopic labeling and filtration techniques. Generally, a series of Tris-buffered solutions of the selected antagonist at predetermined concentrations were prepared. Each of these solutions contains 1 pmole of ^3 H-PAF, a known amount of the test antagonist, and a sufficient amount of the pH 7.5 Tris-buffer solution (10 mM Tris, 0.25% bovine serum albumin, and 150 mM NaCl per ml water) to make the final volume of 1 ml. After adding into a set of test tubes each with 100 μg of the platelet plasma membrane suspension (S. B. Hwang, et al., Biochemistry, 1983) and one of the Tris-buffer solutions described above, the resulting mixture in each test tube was incubated at 0° C. for about one hour or until the reaction was complete. Two control samples, one of which (C1)contains all the ingredients described above except the antagonist and the other (C2) contains C1 plus a 1000-fold excess of unlabeled PAF, were also prepared and incubated simultaneously with the test samples. After the incubation was completed, the contents of each test tube were filtered under vacuo through a Whatman GF/C fiberglass filter and the residue washed rapidly several times with a total of 20 ml cold (0°-5° C.) Tris-buffer solution. Each washed residue was then suspended in 10 ml scintillation solution (Aquasol 2, New England Nuclear, Connecticut) and the radioactivity was counted in a Packard Tri-Carb 460CD Liguid Scintillation System. Defining the counts from a test sample as "Total binding with antagonist"; the counts from the control sample C1, as "Total binding C1 "; and the counts from the control sample C2 as "nonspecific binding C2 ", the percent inhibition of each test antagonist can be determined by the following equation: [formula]
# [2] = system: PAF-induced symptoms (increased vascular permeability, increased degranulation); assay: Oral activity in inhibiting PAF-induced symptoms in rats; format: in vivo; settings: rat
# Source text: B. In vivo Assay: Protocol for Assay of Oral Activity of PAF-antagonists in inhibiting PAF-induced symptoms including decreased arterial blood flow, increased vascular permeability and increased degranulation in rats
# Animals: Female, Wiston rats, 190-220 g
# 2. Weigh the rats the morning after fasting.
# 3. Suspend a test compound in 0.5% methylcellulose with 12 ounce hand homogenizer or a sonicator if necessary to yield a fine suspension. […]
# 4. One hour after dosing, anesthetize the rat with sodium Nembutal (i.p.).
# 5. One and a quarter hours after dosing, cannulate surgically the left femoral vein and artery of the rat.
# 6. One and a half hours after dosing, infuse through cannulated vein 0.5 nannomoles (n moles) per 200 g body weight of the rat. Take blood samples from the cannulated femoral artery at 1.5, 3, 5, 8, 11, 15, 20 25 and 30 minute intervals. After the beginning of the PAF infusion as well as just before the PAF infusion, measure the following three parameters for each blood sample:
# (§1) (a) the arterial blood flow rate: determined by measuring the time to fill a pre-calibrated 14 μl capillary tube;
# (b) the vascular permeability: measured by calculating the increased hematocrit which results from loss of plasma from the circulation to extra-vascular spaces.
# (c) the circulatory degranulation: determined by assaying the increased plasma level of N-acetylglucosaminidase, a marker lysosomal enzyme.
# 7. Determine the percent change in each parameter of a blood sample at each post-PAF interval including the 30 minute interval, relative to the pre-PAF blood values.
# (§2) 8. Calculate the percent inhibition by the formula: [formula]
# [3] = system: soluble immune complex induced effects; assay: Method B: oral activity in inhibiting soluble immune complex induced effects in rats; format: in vivo; settings: rat, 50 mg/kg
# Procedure: Method B: Protocol for Assay of Oral Activity of PAF antagonists in inhibiting soluble immune complex induced effects including decreased arterial blood flow, increased vascular permeability and increased degranulation in rats.
# Animals: Female, wistar rats, 190-22-g
# 2. Weigh the rats the morning after fasting
# 3. Suspend a test compound in 0.5% methylcellulose with 12 ounce hand homogenizer to yield fine suspension. Administer orally each of the rats with 2 ml of suspension such that the rat received a predetermined amount of the compound varying between 2 and 50 mg compound per kg bodyweight of the rat.
# 4. Soluble immune complexes (I.C.) were prepared by mixing 2.4 mg human serum albumin (HSA) with 51 mg of the Igby fraction from rabbit anti-HSA antiserum in a final volume of 3.4 ml and incubating at 37° C. for 1 hour. This ratio of HSA to antibody was previously determined to be in slight antigen excess of equivalence and to result in soluble I.C. Following 37° C. incubation, the I.C. was centrifuged at 10,000 xg, 5 minute and the resulting superinstant containing the soluble I.C. stored on ice.
# 5. Two and one-half hours after dosing, anesthetize the rat with sodium Nembutal (i.P.)
# 6. Two and three-quarters hours after dosing, cannulate surgically the left femoral vein and artery of the rat. Take a blood sample from the cannulated femoral artery before the I.C. infusion and 1.5, 3, 5, 8, 11, 15, 20, 25 and 30 minutes after the I.C. infusion. Measure the following three parameter for each blood sample:
# as §1
# (b) the vascular permeability: measured by calculating the increased hematocit which results from loss of plasma from the circulation to extra-vascular spaces.
# (c) the circulatory degranulation: determined by assaying the increased plasma level of N-acetylglucosaminidase, a marker lysopomal enzyme.
# as §2
inhibition at 1 µM [1] [%],inhibition at 5 µM [1] [%],inhibition at 0.03 µM [1] [%],inhibition at 0.1 µM [1] [%],inhibition at 0.3 µM [1] [%],PAF-antagonist activity (in words) [1],Compound,% inhibition A (increased vascular permeability) ([2]; 20 mg/kg) [%],% inhibition B (increased degranulation) ([2]; 20 mg/kg) [%],other results
53,82,–,–,–,–,COc1ccc([C@H]2S[C@@H](c3ccc(OC)c(OC)c3)[C@H](C)[C@H]2C)cc1OC (relative stereo),–,–,–
82,–,30,68,43,–,COc1ccc([C@H]2S[C@H](c3ccc(OC)c(OC)c3)[C@H](C)[C@H]2C)cc1OC (relative stereo),–,–,–
100,–,31,43,83,–,"COc1ccc([C@H]2CC[C@H](c3ccc(OC)c(OC)c3)S2)cc1OC (relative stereo) [H H 3,4-dimethoxyphenyl same as Ar trans, trans-2,5-bis-(3,4-dimethoxyphenyl)tetrahydrothiophene]",–,–,–
100,–,69,95,100,most active PAF-antagonists,"COc1cc([C@H]2CC[C@H](c3cc(OC)c(OC)c(OC)c3)S2)cc(OC)c1OC (relative stereo) [trans-2,5-bis (3,4,5-trimethoxyphenyl) tetrahydrothiophene]",85,83,% inhibition A (increased vascular permeability) ([2]; 1 mg/kg): 20%; % inhibition B (increased degranulation) ([2]; 1 mg/kg): 49%; % inhibition A (increased vascular permeability) ([2]; 5 mg/kg): 58%; % inhibition B (increased degranulation) ([2]; 5 mg/kg): 60%; % inhibition A (increased vascular permeability) ([2]; 40 mg/kg): 81%; % inhibition B (increased degranulation) ([2]; 40 mg/kg): 81%; % inhibition of decreased arterial blood flow [3]: 40%; % inhibition of increased degranulation [3]: 40%; % inhibition of increased vascular permeability [3]: 73%
80,96,–,–,–,most active PAF-antagonists,"COc1cc([C@H]2CC[C@H](c3cc(OC)c(OC)c(OC)c3)S2)cnc1OC (relative stereo) [trans-2-(3,4,5-trimethoxyphenyl)-5-(5,6-dimethoxy-3-pyridyl)tetrahydrothiophene]",–,–,–
62,–,–,25,41,–,"COc1ccc([C@@H]2CC[C@H](c3ccc(OC)c(OC)c3)S2)cc1OC [H H 3,4-dimethoxyphenyl same as Ar cis, cis-2,5-bis-(3,4-dimethoxyphenyl)tetrahydrothiophene]",41,35,–
